Like-named read-outs stand apart in the source and are kept apart here.
What was measured:
[1] = Zeta-potential measurement; format: physicochemical; details: for Zeta-pot. / mV: zeta potential of peptide, Fig S15 source data; for Zeta pot. / mV: 1 mg/mL in PBS pH 7.4 from 10 mg/mL DMSO stock, 1 d RT, 60 µL diluted in 600 µL 1 mM KCl, Zetasizer Nano ZS, Smoluchowski, mean of triplicate
How it was run: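 One-day room-temperature aggregation at 1 mg/mL in PBS (pH 7.4) preceded measurement; samples then went into 1 mM KCl. Triplicates per sample, two independent experiments averaged.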

[2] = format: physicochemical; details: for ThT Cat. / ThT-Fluorescence (categorical): ThT-active if fluorescence at least twice the control
How it was run: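 Fibrils (1 mg/mL solution) were mixed with 50 µM ThT in PBS for 15 min at RT, and fluorescence was read at λex 440/λem 488 nm against a PBS blank, as a triplicate mean ± SD. Zeta potential came from electrophoretic mobility (Smoluchowski) after 1 d aggregation at 1 mg/mL in PBS pH 7.4, diluted into 1 mM KCl.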

[3] = ThT fluorescence relative to blank (42.1851851851852 a.u.)
[4] = ThT fluorescence relative to blank, blank = 42.1851851851852
[5] = relative to blank 42.1851851851852 a.u.

Row | Substance | Zeta category ( +1 = if > 4 mV;-1 = if < -4 mV; 0 = -4mV to 4 mV) [1] | Zeta Pot. / mV ([1]; mean, Std in separate column) [mV] | Zeta-pot. / mV [1] [mV] | Tht category (> 1.5 to blank = +) ([2]; category 1/0) | Zeta category ( +1 = if > 4 mV;-1 = if < -4 mV; 0 = -4mV to 4 mV) ([1]; FigS26) | Tht category (> 1.5 to blank = +) ([2]; FigS26) | ThT Cat. / ThT-Fluorescence (categorical) [2] | also measured
1 | KIKIQII [TG1 / (KM4)] | 1 (+1 = if > 4 mV) | 5.61 | 5.61 | 0 (ThT-inactive (N-Fold <2)) | – | – | – | Zeta Pot. / mV [1]: 5.61 mV; Tht rel to blank (42.1851851851852) [2, 3]: 1.392; Tht rel to blank (42.1851851851852) [2, 4]: 1.392; Tht rel to blank (42.1851851851852) [2, 5]: 1.392
2 | KIKIQIII [TG7] | 1 (+1 = if > 4 mV) | 19.8 | 19.8 | 1 (ThT. Cat is 1, if Rel. ThT >2) | – | – | – | Zeta Pot. / mV [1]: 19.8 mV; Tht rel to blank (42.1851851851852) [2, 3]: 2.287; Tht rel to blank (42.1851851851852) [2, 4]: 2.287; Tht rel to blank (42.1851851851852) [2, 5]: 2.287
3 | KIKIQIMQWN [VH16] | – | – | 9.44 | – | 1 (+1 = if > 4 mV) | 0 (Tht category (> 1.5 to blank = +)) | – | –
4 | KIKIQIMWNQ [VH15] | – | – | 2.96 | – | 0 (0 = -4mV to 4 mV) | 0 (Tht category (> 1.5 to blank = +)) | – | –
5 | KIKIQIN [JGB3] | 0 (0 = -4mV to 4 mV) | 3.34 | 3.34 | 0 (ThT-inactive (N-Fold <2)) | – | – | – | Tht rel to blank (42.1851851851852) [2, 5]: 1.784
6 | KIKIQINAWQ [JR3-II] | – | – | 13.1 | – | 1 (+1 = if > 4 mV) | 1 (Tht category (> 1.5 to blank = +)) | – | –
7 | KIKIQINMAQ [JR2] | – | – | 3.07 | – | 0 (0 = -4mV to 4 mV) | 0 (Tht category (> 1.5 to blank = +)) | – | –
8 | KIKIQINMWA [JR1] | – | – | 14.7 | – | 1 (+1 = if > 4 mV) | 0 (Tht category (> 1.5 to blank = +)) | – | –
9 | KIKIQINMWQRGD [VH17-II] | 0 (0 = -4mV to 4 mV) | 1.69 | 1.69 | 0 (ThT-inactive (N-Fold <2)) | – | 0 (Tht category (> 1.5 to blank = +)) | – | Tht rel to blank (42.1851851851852) [2, 5]: 1.548
10 | KIKIQINMWWQ [VH11] | 1 (+1 = if > 4 mV) | 11.8 | 11.8 | 0 (ThT-inactive (N-Fold <2)) | – | – | – | Tht rel to blank (42.1851851851852) [2, 5]: 1.314
11 | KIKIQINMWWWQ [VH12] | 1 (+1 = if > 4 mV) | 9.45 | 9.45 | 0 (ThT-inactive (N-Fold <2)) | – | – | – | Tht rel to blank (42.1851851851852) [2, 5]: 1.301
12 | KIKIQIRGD [MG6] | – | – | 6.43 | – | 1 (+1 = if > 4 mV) | 1 (Tht category (> 1.5 to blank = +)) | – | –
13 | KIKIQIW [TM69] | 1 (+1 = if > 4 mV) | 12.5 | 12.5 | 1 (ThT. Cat is 1, if Rel. ThT >2) | – | – | – | Zeta Pot. / mV [1]: 12.5 mV; Tht rel to blank (42.1851851851852) [2, 4]: 2.047; Tht rel to blank (42.1851851851852) [2, 5]: 2.047
14 | KIKIWIW | – | – | – | – | – | – | 0 (ThT-inactive (N-Fold <2)) | Zeta-Potential / mV ([1]; mean, Figure 6C): 17.23 mV
15 | KIKQIIN [JGA3] | -1 (-1 = if < -4 mV) | -11.7 | -11.7 | – | – | – | – | Tht rel to blank (42.1851851851852) [2, 3]: 1.148
16 | KIWIWIW | – | – | – | – | – | – | 1 (ThT. Cat is 1, if Rel. ThT >2) | Zeta-Potential / mV ([1]; mean, Figure 6C): 11.33 mV
17 | KLKLKLQL [TG16] | 1 (+1 = if > 4 mV) | – | 8.39 | 0 (ThT-inactive (N-Fold <2)) | – | – | – | Zeta Pot. / mV [1]: 8.39 mV; Tht rel to blank (42.1851851851852) [2, 4]: 1.572

Row | Substance | Zeta category ( +1 = if > 4 mV;-1 = if < -4 mV; 0 = -4mV to 4 mV) [1] | Zeta Pot. / mV ([1]; mean, Std in separate column) [mV] | Zeta-pot. / mV [1] [mV] | Tht category (> 1.5 to blank = +) ([2]; category 1/0) | Zeta category ( +1 = if > 4 mV;-1 = if < -4 mV; 0 = -4mV to 4 mV) ([1]; FigS26) | Tht category (> 1.5 to blank = +) ([2]; FigS26) | ThT Cat. / ThT-Fluorescence (categorical) [2] | also measured
18 | KLKLTLT | – | – | – | – | – | – | 1 (ThT. Cat is 1, if Rel. ThT >2) | Zeta pot. / mV [1]: 1.713 mV; Zeta-Potential / mV ([1]; mean, Figure 6C): 1.713 mV
19 | KLVFFAK [reference compound] | – | – | – | – | – | – | 0 (ThT-inactive (N-Fold <2)) | Zeta pot. / mV [1]: 3.2 mV; Zeta-Potential / mV ([1]; mean, Figure 7B): 3.23 mV
20 | KVKVKVQV [JG14 / TG14] | 0 (0 = -4mV to 4 mV) | – | -3.41 | 1 (ThT. Cat is 1, if Rel. ThT >2) | – | – | – | Zeta Pot. / mV [1]: -3.41 mV; Tht rel to blank (42.1851851851852) [2, 4]: 5.801
21 | KVKVQVV [TG2] | -1 (-1 = if < -4 mV) | -7.92 | -7.92 | 0 (ThT-inactive (N-Fold <2)) | – | – | – | Zeta Pot. / mV [1]: -7.92 mV; Tht rel to blank (42.1851851851852) [2, 3]: 1.263; Tht rel to blank (42.1851851851852) [2, 4]: 1.263
22 | KVKVQVVV [TG8] | 0 (0 = -4mV to 4 mV) | 0.147 | 0.147 | 0 (ThT-inactive (N-Fold <2)) | – | – | – | Zeta Pot. / mV [1]: 0.147 mV; Tht rel to blank (42.1851851851852) [2, 3]: 0.8863; Tht rel to blank (42.1851851851852) [2, 4]: 0.8863
23 | KYFIL [reference compound] | – | – | – | – | – | – | 0 (ThT-inactive (N-Fold <2)) | Zeta pot. / mV [1]: -7.2 mV; Zeta-Potential / mV ([1]; mean, Figure 7B): -7.18 mV
24 | KYKYQY [KB1] | -1 (-1 = if < -4 mV) | – | -4.2 | 1 (ThT. Cat is 1, if Rel. ThT >2) | – | – | – | Zeta Pot. / mV [1]: -4.2 mV; Tht rel to blank (42.1851851851852) [2, 4]: 6.106
25 | LASLIYR [reference compound] | – | – | – | – | – | – | 0 (ThT-inactive (N-Fold <2)) | Zeta pot. / mV [1]: -5.0 mV; Zeta-Potential / mV ([1]; mean, Figure 7B): -5.01 mV
26 | MKVIFLKDVKG [reference compound] | – | – | – | – | – | – | 0 (ThT-inactive (N-Fold <2)) | Zeta pot. / mV [1]: 9.6 mV; Zeta-Potential / mV ([1]; mean, Figure 7B): 9.62 mV
27 | NKGAII [reference compound] | – | – | – | – | – | – | 0 (ThT-inactive (N-Fold <2)) | Zeta pot. / mV [1]: -9.5 mV; Zeta-Potential / mV ([1]; mean, Figure 7B): -9.46 mV
28 | NMWQKAKAQA [JG10] | – | – | -5.56 | – | -1 (-1 = if < -4 mV) | 1 (Tht category (> 1.5 to blank = +)) | – | –
29 | NMWQKFKFQF [JG11] | – | – | 9.56 | – | 1 (+1 = if > 4 mV) | 0 (Tht category (> 1.5 to blank = +)) | – | –
30 | NMWQKIKIQI [JG9] | – | – | 8.26 | – | 1 (+1 = if > 4 mV) | 1 (Tht category (> 1.5 to blank = +)) | – | –
31 | NMWQKIKQII [JG8] | – | – | -0.213 | – | 0 (0 = -4mV to 4 mV) | 0 (Tht category (> 1.5 to blank = +)) | – | –
32 | RATVYV [reference compound] | – | – | – | – | – | – | 0 (ThT-inactive (N-Fold <2)) | Zeta pot. / mV [1]: -5.2 mV; Zeta-Potential / mV ([1]; mean, Figure 7B): -5.17 mV
33 | RFWFWFW | – | – | – | – | – | – | 1 (ThT. Cat is 1, if Rel. ThT >2) | Zeta-Potential / mV ([1]; mean, Figure 6C): 13.63 mV
